Read-outs that look alike come from different tables or passages of the source. Where a SMILES comes first, the peptide text is derived from it. [ ]: non-standard residue; d: D form. Cha = N[C@@H](CC1CCCCC1)C(=O)O
Experiments:
[1] = Circular dichroism spectroscopy, helical residues per peptide chain; format: physicochemical; conditions: [Ala1,Arg19]hPTH(1-31)NH2 analogs; calculated from [θ]222
Procedure: Circular Dichroism—CD spectra were obtained on a JASCO J-600 spectropolarimeter at 20° C. Four spectra were averaged and the data smoothed by the JASCO software. The instrument was calibrated with ammonium (+)-10-camphorsulfonate. Peptide concentrations were verified from the absorption at 280 nm, using an extinction coefficient of 5700 M^−1 for the single tryptophan. Data are expressed as the number of helical residues per peptide chain, as calculated from −[θ]222×30/28,000, where [θ]222 is the mean residue elipticity ([θ]) at 222 nm, as was described previously (Barbier, J. R., et al. (2005) J Biol Chem. 280:23771-23777).

PTHR-delNt = biological target: T1, PTHR-delNt (Homo sapiens, UniProt Q03431, DEL24-181); test: Competition binding in COS-7 cell membranes with 125I-[Aib1,3,M]PTH(1-15)NH2 tracer; conditions: for effect on binding to PTHR-delNt (in words) / reduction (alteration) of binding affinity for PTHR-delNt relative to parent peptide: COS-7 membranes; for reduction (alteration) of binding affinity for PTHR-delNt relative to parent peptide: versus the respective parent peptide; for IC50: COS-7 membranes cotransfected with negative-dominant Gαs
T1 construct: expressed in transfected cells; host or cells: COS-7 cells, transient co-transfection; membranes prepared
T1 sequence (Q03431 with tags, fused parts or gaps DEL24-181): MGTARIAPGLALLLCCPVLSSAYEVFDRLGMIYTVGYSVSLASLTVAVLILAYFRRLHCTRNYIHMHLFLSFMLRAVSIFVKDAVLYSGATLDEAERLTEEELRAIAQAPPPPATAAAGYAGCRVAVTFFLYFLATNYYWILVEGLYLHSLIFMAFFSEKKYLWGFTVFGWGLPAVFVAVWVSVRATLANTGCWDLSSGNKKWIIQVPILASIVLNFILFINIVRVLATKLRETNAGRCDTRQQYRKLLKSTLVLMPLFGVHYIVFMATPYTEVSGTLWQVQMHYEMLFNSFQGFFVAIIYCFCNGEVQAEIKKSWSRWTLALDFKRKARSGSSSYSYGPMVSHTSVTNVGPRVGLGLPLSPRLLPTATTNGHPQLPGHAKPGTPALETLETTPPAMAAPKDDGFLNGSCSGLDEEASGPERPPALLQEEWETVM
Procedure: PTHR-delNt is a derivative of the human PTHR that is deleted for most (Ala^24-Arg^181) of the amino-terminal extracellular domain (Shimizu, M., et al. (2001) Endocrinology 142:3068-3074). This PTHR construct was expressed in COS-7 cells via transient DNA transfection. For cAMP assays, the cells were transfected in 24-well plates using 0.2 μg of plasmid DNA and 0.6 μl of Fugene-6 reagent (Roche Diagnostics, Indianapolis Ind.) per well, and assays were performed on the intact cells three to four days after transfection. For binding assays, cell membranes were prepared from transfected COS-7 cells. To increase the maximal binding of ^125I-[Aib^1,3,M]PTH(1-15)NH2 to PTHR-delNt in these membranes, the cells were cotransfected with a negative dominant mutant Gαs protein (Gαs^ND). This mutant Gαs subunit is thought to couple to cognate receptors, and thus stabilize high affinity receptor conformations, more efficiently than does wild-type Gαs, without increasing basal cAMP levels (Berlot, C. H. (2002) J Biol Chem 277:21080-5). A precursor of this mutant Gαs, Gαs(α3β5), was recently used to increase binding of ^125I-[Aib^1,3,M]PTH(1-15)NH2 to PTHR-delNt in COS-7 cell membranes (Dean, T., (2006) Mol Endocrinol 20:931-942). Gαs^ND, which contains the same five amino acid replacement of corresponding Gαi residues in the α3β5 loop as Gαs(α3β5), plus the point mutations of Gly^226 to Ala, which increases affinity for Gβ/γ, and Ala^366 to Ser, which decreases affinity for GDP, yields approximately two-fold higher levels of specific binding of ^125I-[Aib^1,3,M]PTH(1-15)NH2 than does Gαs(α3β5) (data not shown). For the current membrane preparations, COS-7 cells were co-transfected in six-well plates using 1 μg of each plasmid DNA encoding PTHR-delNt and Gαs^ND, and 6 μl of Fugene-6 reagent (Roche Diagnostics, Indianapolis Ind.) per well. Cells were harvested three days after transfection, and membranes were prepared as described (Dean, T., et al. (2006) Mol Endocrinol 20:931-942).
Receptor binding—Binding to the wild-type human PTHR in intact HKRK-B7 cells and ROS 17/2.8 cells was assessed using ^125I-PTH(1-34) as a tracer radioligand, as described (Shimizu, M., (2001) Endocrinology 142:3068-3074). In brief, the cells in 24-well plates (about 500,000 cells per well) were incubated in binding buffer containing radioligand (about 100,000 cpm per well) with or without unlabeled peptide ligand (3×10^−9 to 1×10^−5 M) for four hours at 15° C. The binding mixture was then removed by aspiration, the cells were rinsed three times with binding buffer, lysed in 1 M NaOH, and the entire lysate was counted for gamma-irradiation in a gamma counter. Binding to PTHR-delNt in COS-7 cell membranes was assessed in 96-well, vacuum filtration plates (Multiscreen-Durapore HV, […] membranes, Millipore Corp., Millford, Mass.) using ^125I-[Aib^1,3,M]PTH(1-15)NH2 as a tracer radioligand, as described (Dean, T., (2006) Mol Endocrinol 20:931-942). In brief, cell membranes (20 μg/well) were incubated in membrane binding buffer containing radioligand (30,000 cpm/well) with or without unlabeled peptide ligand (3×10^−9 to 1×10^−5 M) for 90 minutes at 21° C. The plates were then subject to rapid vacuum filtration, the filters were washed once with buffer, detached from the plate and counted for gamma-irradiation in a gamma counter. Non-specific binding was defined as the binding observed in the presence of 1×10^−6 M PTH(1-31)NH2 for HKRK-B7 and ROS 17/2.8 cells, and 1×10^−6 M [Aib^1,3,M]PTH(1-15)NH2 for PTHR-delNt. Specifically bound radioactivity was calculated as a percentage of the radioactivity specifically bound in the absence of competing ligand. […]

[2] = [Ala1,Arg19]hPTH(1-31)NH2 analogs, read-out: PTHR-delNT (COS-7) IC50

SMILES	CD helical residues [1]	effect on binding to PTHR-delNt (in words) (PTHR-delNt)	reduction (alteration) of binding affinity for PTHR-delNt relative to parent peptide (PTHR-delNt)	IC50 (PTHR-delNt; [2])	IC50 (PTHR-delNt; PTHR-delNT (COS-7) IC50, [Ala1,Arg19]hPTH(1-31)NH2 analogs)
CC[C@H](C)[C@H](NC(=O)[C@H](CCC(=O)O)NC(=O)[C@H](CO)NC(=O)[C@@H](NC(=O)[C@H](C)N)C(C)C)C(=O)N[C@@H](CCC(N)=O)C(=O)N[C@@H](CC(C)C)C(=O)N[C@@H](CCSC)C(=O)N[C@@H](Cc1c[nH]cn1)C(=O)N[C@@H](CC(N)=O)C(=O)N[C@@H](CC(C)C)C(=O)NCC(=O)N[C@@H](CCCCN)C(=O)N[C@@H](Cc1c[nH]cn1)C(=O)N[C@@H](CC(C)C)C(=O)N[C@@H](CC(N)=O)C(=O)N[C@@H](CO)C(=O)N[C@@H](CCSC)C(=O)N[C@@H](CCCNC(=N)N)C(=O)N[C@@H](CCCNC(=N)N)C(=O)N[C@H](C(=O)N[C@@H](CCC(=O)O)C(=O)N[C@@H](CC1CCCCC1)C(=O)N[C@@H](CC(C)C)C(=O)N[C@@H](CCCNC(=N)N)C(=O)N[C@@H](CCCCN)C(=O)N[C@@H](CCCCN)C(=O)N[C@@H](CC(C)C)C(=O)N[C@@H](CCC(N)=O)C(=O)N[C@@H](CC(=O)O)C(=O)N[C@H](C(N)=O)C(C)C)C(C)C [Trp^23→Cha] (H-AVSEIQLMHNLGKHLNSMRRVE[Cha]LRKKLQDV-NH2; N-terminus assumed)	8	little or no effect on binding to PTHR-delNt	three-fold or less	867 ± 402 nM	–
CC[C@H](C)[C@H](NC(=O)[C@H](CCC(=O)O)NC(=O)[C@H](CO)NC(=O)[C@@H](NC(=O)[C@H](C)N)C(C)C)C(=O)N[C@@H](CCC(N)=O)C(=O)N[C@@H](CC(C)C)C(=O)N[C@@H](CCSC)C(=O)N[C@@H](Cc1c[nH]cn1)C(=O)N[C@@H](CC(N)=O)C(=O)N[C@@H](CC(C)C)C(=O)NCC(=O)N[C@@H](CCCCN)C(=O)N[C@@H](Cc1c[nH]cn1)C(=O)N[C@@H](CC(C)C)C(=O)N[C@@H](CC(N)=O)C(=O)N[C@@H](CO)C(=O)N[C@@H](CCSC)C(=O)N[C@@H](CCCNC(=N)N)C(=O)N[C@@H](CCCNC(=N)N)C(=O)N[C@H](C(=O)N[C@@H](CCC(=O)O)C(=O)N[C@@H](Cc1c[nH]c2ccccc12)C(=O)N[C@@H](CC(C)C)C(=O)N[C@@H](CCCNC(=N)N)C(=O)N[C@@H](CCCCN)C(=O)N[C@@H](CCCCN)C(=O)N[C@@H](CC(C)C)C(=O)N[C@@H](CC1CCCCC1)C(=O)N[C@@H](CC(=O)O)C(=O)N[C@H](C(N)=O)C(C)C)C(C)C [Gln^29→Cha] (H-AVSEIQLMHNLGKHLNSMRRVEWLRKKL[Cha]DV-NH2; N-terminus assumed)	8	–	–	319 ± 57 nM	–
CC[C@H](C)[C@H](NC(=O)[C@H](CCC(=O)O)NC(=O)[C@H](CO)NC(=O)[C@@H](NC(=O)[C@H](C)N)C(C)C)C(=O)N[C@@H](CCC(N)=O)C(=O)N[C@@H](CC(C)C)C(=O)N[C@@H](CCSC)C(=O)N[C@@H](Cc1c[nH]cn1)C(=O)N[C@@H](CC(N)=O)C(=O)N[C@@H](CC(C)C)C(=O)NCC(=O)N[C@@H](CCCCN)C(=O)N[C@@H](Cc1c[nH]cn1)C(=O)N[C@@H](CC(C)C)C(=O)N[C@@H](CC(N)=O)C(=O)N[C@@H](CO)C(=O)N[C@@H](CCSC)C(=O)N[C@@H](CCCNC(=N)N)C(=O)N[C@@H](CCCNC(=N)N)C(=O)N[C@H](C(=O)N[C@@H](CCC(=O)O)C(=O)N[C@@H](Cc1c[nH]c2ccccc12)C(=O)N[C@@H](CC(C)C)C(=O)N[C@@H](CCCNC(=N)N)C(=O)N[C@@H](CCCCN)C(=O)N[C@@H](CCCCN)C(=O)N[C@@H](CC(C)C)C(=O)N[C@@H](CCC(N)=O)C(=O)N[C@@H](CC(=O)O)C(=O)N[C@@H](CC1CCCCC1)C(N)=O)C(C)C [Val^31→Cha] (H-AVSEIQLMHNLGKHLNSMRRVEWLRKKLQD[Cha]-NH2; N-terminus assumed)	9	–	–	466 ± 298 nM	–
CC[C@H](C)[C@H](NC(=O)[C@H](CCC(=O)O)NC(=O)[C@H](CO)NC(=O)[C@@H](NC(=O)[C@H](C)N)C(C)C)C(=O)N[C@@H](CCC(N)=O)C(=O)N[C@@H](CC(C)C)C(=O)N[C@@H](CCSC)C(=O)N[C@@H](Cc1c[nH]cn1)C(=O)N[C@@H](CC(N)=O)C(=O)N[C@@H](CC(C)C)C(=O)NCC(=O)N[C@@H](CCCCN)C(=O)N[C@@H](Cc1c[nH]cn1)C(=O)N[C@@H](CC(C)C)C(=O)N[C@@H](CC(N)=O)C(=O)N[C@@H](CO)C(=O)N[C@@H](CCSC)C(=O)N[C@@H](CCCNC(=N)N)C(=O)N[C@@H](CCCNC(=N)N)C(=O)N[C@H](C(=O)N[C@@H](CCC(=O)O)C(=O)N[C@@H](Cc1c[nH]c2ccccc12)C(=O)N[C@@H](CC(C)C)C(=O)N[C@@H](CC1CCCCC1)C(=O)N[C@@H](CCCCN)C(=O)N[C@@H](CCCCN)C(=O)N[C@@H](CC(C)C)C(=O)N[C@@H](CCC(N)=O)C(=O)N[C@@H](CC(=O)O)C(=O)N[C@H](C(N)=O)C(C)C)C(C)C [Arg^25→Cha] (H-AVSEIQLMHNLGKHLNSMRRVEWL[Cha]KKLQDV-NH2; N-terminus assumed)	9	–	approximately five- to seven-fold	–	2710 ± 1310 nM
CC[C@H](C)[C@H](NC(=O)[C@H](CCC(=O)O)NC(=O)[C@H](CO)NC(=O)[C@@H](NC(=O)[C@H](C)N)C(C)C)C(=O)N[C@@H](CCC(N)=O)C(=O)N[C@@H](CC(C)C)C(=O)N[C@@H](CCSC)C(=O)N[C@@H](Cc1c[nH]cn1)C(=O)N[C@@H](CC(N)=O)C(=O)N[C@@H](CC(C)C)C(=O)NCC(=O)N[C@@H](CCCCN)C(=O)N[C@@H](Cc1c[nH]cn1)C(=O)N[C@@H](CC(C)C)C(=O)N[C@@H](CC(N)=O)C(=O)N[C@@H](CO)C(=O)N[C@@H](CCSC)C(=O)N[C@@H](CCCNC(=N)N)C(=O)N[C@@H](CCCNC(=N)N)C(=O)N[C@H](C(=O)N[C@@H](CCC(=O)O)C(=O)N[C@@H](Cc1c[nH]c2ccccc12)C(=O)N[C@@H](CC1CCCCC1)C(=O)N[C@@H](CCCNC(=N)N)C(=O)N[C@@H](CCCCN)C(=O)N[C@@H](CCCCN)C(=O)N[C@@H](CC(C)C)C(=O)N[C@@H](CCC(N)=O)C(=O)N[C@@H](CC(=O)O)C(=O)N[C@H](C(N)=O)C(C)C)C(C)C [Leu^24→Cha] (H-AVSEIQLMHNLGKHLNSMRRVEW[Cha]RKKLQDV-NH2; N-terminus assumed)	9	little or no effect on binding to PTHR-delNt	three-fold or less	283 ± 68 nM	–

— patent publication US8143374B2, “Polypeptide derivatives of parathyroid hormone (PTH)” (The General Hospital Corporation, priority 2006, dated 2012)
